Results on 1 molecule are retold here after publication PMC11009648, “Development of an orally bioavailable mSWI/SNF ATPase degrader and acquired mechanisms of resistance in prostate cancer” (Proceedings of the National Academy of Sciences of the …, 2024).

The subject of data set [1] is proteome of VCaP cells (SMARCA2, SMARCA4, PBRM1). Put plainly: TMT mass spectrometry proteomics of VCaP cells. The class given is cell-based, human. The protocol:
Cells were plated at 5 × 10^6 cells per well in a 6-well plate overnight prior to treatment with DMSO, 100 nM AU-24118, or 1 μM AU-15330 for 2 h. Whole cell lysates were prepared in RIPA buffer (Thermo Fisher) supplemented with tablets of cOmpleteTM protease inhibitor cocktail (Sigma-Aldrich). For each condition, 75 µg of total protein was labeled with TMT isobaric Label Reagent (Thermo Fisher) according to the manufacturer’s protocol and subjected to 12 fractions of liquid chromatography–MS (LC–MS)/MS analysis.

For data set [2], the system named is 22Rv1 AUR-2 cells. Put plainly: CellTiter-Glo cell viability assay in AU-15330-resistant 22Rv1 AUR-2 cells (SMARCA4 mutation). The class given is cell-based, human. The note with it: dose-response (Fig. S4C). The source says:
The rising importance of the mSWI/SNF complex as a therapeutic target and the success ([32], [33]) of developing next-generation PROTAC degraders targeting the mSWI/SNF complex prompted us to proactively study potential resistance mechanisms that cancer cells may develop in response to this class of compounds. To achieve this, we cultured 22Rv1 cells in either DMSO or a lethal dose of AU-15330 for 1 mo, refreshing the drug twice a week, until resistant cells emerged. Upon obtaining a population of resistant cells, we unbiasedly characterized the genomic and transcriptomic alterations using whole-exome sequencing and bulk RNA sequencing (RNA-seq), respectively (Fig. 3A).
Cells were seeded onto 96-well plates in appropriate culture media and allowed to adhere overnight prior to treatment. The next day, a nine-point serial dilution of the compounds was prepared and added to the plates. After treatment, the cells were then incubated for an additional 5 d. […] The signal (luminescence) from each well was determined using an Infinite M1000 Pro plate reader (Tecan). Relative viability was determined by dividing the signal from each well by the average of the control condition in each experiment. Finally, the data were analyzed and plotted using GraphPad Prism.
On the technique in general: In ATP-based viability assays light output follows the ATP content of the culture.

In data set [3] the test system is SMARCA4, SMARCA2 and PBRM1 in 22Rv1 AUR-2 cells. Put plainly: Immunoblot of target degradation in 22Rv1 AUR-2 cells. As to conditions: 4 h, AU-15330 1 µM, AU-24118 0.1 µM. The class given is cell-based, human.
Description: (§1) Lysates were prepared using radioimmunoprecipitation assay buffer (Thermo Fisher) with cOmpleteTM protease inhibitor cocktail tablets (Sigma-Aldrich) added. Total protein for each sample was determined using the DC Protein Assay (Bio-Rad) according to the manufacturer’s instructions. A standardized quantity of protein was resolved using NuPAGE Tris-Acetate Protein Gel (3 to 8%) (Thermo Fisher) or NuPAGE Bis-Tris Protein Gel (4 to 12%) (Thermo Fisher) and probed with primary antibodies as indicated. Following incubation with secondary antibodies conjugated with horseradish peroxidase, membranes were imaged on an Odyssey Fc Imager (LiCOR Biosciences).
In data set [4] the test system is 22Rv1-wild type (WT) cells. Put plainly: CellTiter-Glo cell viability assay in 22Rv1 wild type cells. The class given is cell-based, human. The note with it: Homo sapiens, 22Rv1, Fig. S5F; 22Rv1 WT. The protocol:
Cells were seeded onto 96-well plates in appropriate culture media and allowed to adhere overnight prior to treatment. The next day, a nine-point serial dilution of the compounds was prepared and added to the plates. After treatment, the cells were then incubated for an additional 5 d. On the last day of treatment, the CellTiter-Glo cell viability assay (Promega) was then executed in accordance with the manufacturer’s guidelines. The signal (luminescence) from each well was determined using an Infinite M1000 Pro plate reader (Tecan). Relative viability was determined by dividing the signal from each well by the average of the control condition in each experiment. Finally, the data were analyzed and plotted using GraphPad Prism.

Data set [5] can be described thus: Toxicity and maximum tolerated dose in tumor-free CB17 SCID mice. The class given is in vivo. The procedure:
To evaluate the preclinical safety of AU-24118, we conducted extensive toxicity analyses with AU-24118 in mice. First, to establish the maximum tolerated dose, we implemented a dosage escalation experiment in CB17 SCID (severe combined immunodeficiency) tumor-free mice.
We further characterized the host organ (spleen, kidney, and liver) morphology and function upon AU-24118 treatment at the maximum tolerated dose (15 mg/kg) in CB17 SCID mice. […] Additionally, we evaluated liver and kidney function using a blood panel on a separate cohort of CB17 SCID mice that underwent 25 d treatment with AU-24118 at the maximum tolerated dose.
Organs (liver, spleen, and kidney) were harvested from mice and fixed in neutral buffered formalin (10%) and subsequently embedded in paraffin to generate tissue blocks. These blocks were then sectioned at a thickness of 4 µm and stained using Harris hematoxylin (Leica Surgipath) and alcoholic eosin-Y stain (Leica Surgipath). Staining was executed using the automated Leica autostainer-XL platform. Upon staining, the sections were subsequently analyzed by two pathologists on a brightfield microscope to determine morphology and architectural coherence. These pathological assessments were performed in a blinded manner. Detailed and comprehensive analysis of cellular and -subcellular level changes of organs were performed as previously described ([16]).

Data set [6] relates to SMARCA4 (BRG1) and PBRM1 in VCaP cells. Nature of the data set: Immunoblot of target degradation in VCaP cells. The note with it: 4 h, identical treatment conditions. The class given is cell-based, human. In general terms: In western blotting, separated proteins are transferred to a membrane and probed.
Description: as §1
A short description of data set [7]: In vivo pharmacokinetics in rats. The note with it: plasma; for Cmax: read-out: Cmax/C0. The text has this: All experimental procedures relating to animal care, handling, and treatment were approved by the Institutional Animal Ethics Committee of Aurigene Oncology Ltd. based on the Committee for Control and Supervision of Experiments on Animals guidelines. Animals were included for experimentation after 1 wk of acclimatization to standard laboratory conditions and were provided with reverse osmosis-treated water and rodent pellet diet ad libitum.
The pharmacokinetic profile of AU-24118 was studied in both mice and rats. For assessment of oral bioavailability, AU-24118 was administered by intravenous (i.v.) and oral (p.o.) routes at 1 mg/kg and 30 mg/kg doses, respectively (n = 3). For the oral arm, AU-24118 was administered as a solution formulation in 10% PEG200, 50% of 20% D-α-Tocopherol polyethylene glycol 1000 succinate and 40% of 1% Tween-80 in water while AU-24118 was formulated in 2% DMA and 10% HPβCD in saline (qs) for the intravenous administration.
Concentrations of AU-24118 were determined in plasma samples using a nonvalidated (fit for purpose) LC–MS/MS method in positive Multiple Reaction Monitoring mode with transition pair of m/z: 633.11→344.00. Either Carbamazepine (with a transition pair of m/z: 237.07→194.10) or Telmisartan (with a transition pair of m/z: 515.16→276.00) were used as internal standards. Sample processing was carried out by protein precipitation followed by evaporation method. Compound concentrations were calculated using Analyst® software 1.7.2 with linear/quadratic regression algorithm (with 1/×2 weighting factor) over a quantification range of 1 ng/mL to 2,500 ng/mL with the low and high ends of this range defining the lower limit of quantitation and upper limit of quantitation, respectively.

pIC50: −log10 of the molar value. Read-outs that look alike come from different tables or passages of the source.

As usually defined, the pIC50 is −log10 of the IC50, conventionally taken in molar units. What is called MTD is the highest dose tested that stayed within the study's limit of toxicity. High values mean a wide tolerated range, low ones a narrow tolerated range. Usually bioavailability stands for the share of a dose that reaches the circulation, judged against a reference dose that is usually intravenous. As usually defined, the AUC(0-inf) is the area under the concentration-time curve extrapolated to infinity. Higher therefore signals high exposure. As usually defined, the AUC(0-t) is the area under the concentration-time curve up to a stated or last time point. Higher therefore signals high exposure. The term clearance denotes the rate of elimination divided by the concentration.

As to `Nc1nnc(-c2ccccc2O)cc1-c1ccc(N2CCC(N3CCC(c4ccc(OC5CCC(=O)NC5=O)cc4)CC3)CC2)cc1` (stereo not drawn) [AU-24118], the “selectivity of degradation, MS-based proteomics” value in data set [1] (VCaP cells, 100 nM AU-24118, 2 h) is “selectively degraded SMARCA2, SMARCA4, and PBRM1”. The “degradation of IMiD neosubstrates, proteomics” value in data set [1] (human cell line (VCaP)) is “not found to degrade any canonical immunomodulatory imide drug (IMiD) neosubstrates such as IKZF1, IKZF3, and GSPT1”. In addition, the “ability to cause a decrease in cell viability” value in data set [2] is “unable”. In data set [3], the “degradation of SMARCA2 and PBRM1, immunoblot” value was “able to degrade SMARCA2 and PBRM1”; the “degradation of SMARCA4, immunoblot” value is reported as “unable to degrade SMARCA4”. In addition, in data set [4], the negative logarithm of the IC50 (pIC50) was 8.03. In addition, in data set [5] (CB17 SCID mice, 15 mg/kg), the “H&E staining of spleen, kidney and liver” value is “no discernible toxicity in normal tissues”. The “blood panel of liver and kidney function (ALT, AST, BUN, CREA)” value in data set [5] (CB17 SCID mice, 25 d treatment, 15 mg/kg) is “slight elevation in alanine transaminases”. Moreover, in data set [5] (CB17 SCID tumor-free mice, 20 mg/kg three times weekly), the “tolerability (body weight, morbidity)” value is on record as “noticeable weight loss after the first week, culminating in morbidity or fatality by the second week”. The “tolerability (body weight)” value in data set [5] (CB17 SCID tumor-free mice, up to 15 mg/kg three times weekly) was “well-tolerated responses”. Moreover, in data set [5] (mouse, in vivo, oral, CB17 SCID mice, dosed three times weekly), the MTD stood at 15 mg/kg. Further, the “degradation of SMARCA4 and PBRM1, immunoblot” value in data set [6] was “comparable degradation efficacy of SMARCA4 and PBRM1 to AU-15330”. In addition, the bioavailability in data set [7] (Wistar, rat, oral, rats, i.v. 1 mg/kg, p.o. 30 mg/kg, read-out: Oral bioavailability (%F)) was determined as 16.3%. Further, in data set [7] (iv, Wistar Rat, I.V. 1mg/kg), the AUC(0-inf) turned out to be 756 ng·h/mL, the area under the curve AUC(0-t) amounted to 670 ng·h/mL and the Cmax was determined as 96.2 ng/mL. Also, the half-life in data set [7] (iv, Wistar Rat, I.V. 1mg/kg, read-out: Beta t1/2 (converted)) was 8.02 h. For the same molecule, the clearance in data set [7] (iv, Wistar Rat, I.V. 1mg/kg, read-out: CI (Clearance)) is 22.1 mL/min/kg. For the same molecule, the Vd in data set [7] (iv, Wistar Rat, I.V. 1mg/kg, read-out: Vdss) came out at 13.3 L/kg. Also, in data set [7] (po, Wistar Rat, P.O. 30mg/kg), the AUC(0-t) came out at 3280 ng·h/mL and the Cmax was 184 ng/mL.
